Source: patent publication US11230543B2, “Biaryl monobactam compounds and methods of use thereof for the treatment of bacterial infections” (priority 2015, dated 2022)
Where a name gives a salt, the structure may show the parent alone.

What was measured:
[1] = test system: Klebsiella pneumoniae expressing KPC-1 (CL6569); assay: Antibiotic activity: growth inhibitory concentration (OD600), Klebsiella pneumoniae CL6569; type: cell-based; details: lowest concentration inhibiting 95% of bacterial growth; in the presence of β lactamase inhibitor Relebactam 4 μg/mL; 35±2° C. for 22 hours; tested range 100 μM to 0.098 μM
In short: (§1)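 Clinical strains at ~2×10^5 CFU/mL in cation-adjusted Mueller-Hinton II broth, with relebactam at 4 μg/mL final; compounds 100 μM to 0.098 μM final. After 22 hours at 35±2° C, OD600 read; MITC95 is lowest concentration giving 95% growth inhibition.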

[2] = test system: Pseudomonas aeruginosa expressing AmpC (CL5701); assay: Antibiotic activity: growth inhibitory concentration (OD600), Pseudomonas aeruginosa CL5701; type: cell-based; details: lowest concentration inhibiting 95% of bacterial growth; in the presence of β lactamase inhibitor Relebactam 4 μg/mL; 35±2° C. for 22 hours; tested range 100 μM to 0.098 μM
In short: as §1

SMILES | KP_CL6569 MITC95 [1] [µM] | PA_CL5701 MITC95 [2] [µM]
C[n+]1cc(-c2ccc(OC[C@H](O/N=C(/C(=O)N[C@@H]3C(=O)N(OS(=O)(=O)[O-])C3(C)C)c3csc(N)n3)C(=O)O)cc2)cn1CCCNC[C@H](O)CO [Example 101, (S)-3-((E)-2-(2-aminothiazol-4-yl)-2-(((S)-1-carboxy-2-(4-(1-(3-(((S)-2,3-dihydroxypropyl)amino)propyl)-2-methyl-1H-pyrazol-2-ium-4-yl)phenoxy)ethoxy)imino)acetamido)-2,2-dimethyl-4-oxoazetidin-1-yl sulfate] | 0.7813 | 12.5
C[n+]1cc(-c2ccc(OC[C@H](O/N=C(/C(=O)N[C@@H]3C(=O)N(OS(=O)(=O)[O-])C3(C)C)c3csc(N)n3)C(=O)O)cc2)cn1CCCNCCN [Example 102, (S)-3-((E)-2-(((S)-2-(4-(1-(3-((2-aminoethyl)amino)propyl)-2-methyl-1H-pyrazol-2-ium-4-yl)phenoxy)-1-carboxyethoxy)imino)-2-(2-aminothiazol-4-yl)acetamido)-2,2-dimethyl-4-oxoazetidin-1-yl sulfate] | 0.125 | 3.125
C[n+]1cc(-c2ccc(OC[C@H](O/N=C(\C(=O)N[C@@H]3C(=O)N(OS(=O)(=O)O)C3(C)C)c3csc(N)n3)C(=O)O)cc2)cn1CCCNCC1CNC1 [Example 103, (S)-3-((E)-2-(2-aminothiazol-4-yl)-2-(((S)-2-(4-(1-(3-((azetidin-3-ylmethyl)amino)-propyl)-2-methyl-1H-pyrazol-2-ium-4-yl)phenoxy)-1-carboxyethoxy)imino)acetamido)-2,2-dimethyl-4-oxoazetidin-1-yl sulfate, 3TFA] | 0.09766 | 3.125
C[n+]1cc(-c2ccc(OC[C@H](O/N=C(\C(=O)N[C@@H]3C(=O)N(OS(=O)(=O)O)C3(C)C)c3csc(N)n3)C(=O)O)cc2)cn1CCCNCCCN [Example 104, (S)-3-((E)-2-(((S)-2-(4-(1-(3-((3-aminopropyl)amino)-propyl)-2-methyl-1H-pyrazol-2-ium-4-yl)phenoxy)-1-carboxyethoxy)imino)-2-(2-aminothiazol-4-yl)acetamido)-2,2-dimethyl-4-oxoazetidin-1-yl sulfate, 3TFA] | 0.1953 | 6.25
C[n+]1cc(-c2ccc(OC[C@](C)(O/N=C(\C(=O)N[C@@H]3C(=O)N(OS(=O)(=O)[O-])C3(C)C)c3csc(N)n3)C(=O)O)cc2F)cn1CCCN [Example 105, (S)-3-((Z)-2-((((Sn-1-(4-(1-(3-aminopropyl)-2-methyl-1H-pyrazol-2-ium-4-yl)-3-fluorophenoxy)-2-carboxypropan-2-yl)oxy)imino)-2-(2-aminothiazol-4-yl)acetamido)-2,2-dimethyl-4-oxoazetidin-1-yl sulfate] | 0.3906 | 3.125
C[n+]1cc(-c2ccc(OC[C@H](O/N=C(\C(=O)N[C@@H]3C(=O)N(OS(=O)(=O)[O-])C3(C)C)c3csc(N)n3)C(=O)O)nn2)cn1CCCN [Example 106, (S)-3-((Z)-2-(((S)-2-((6-(1-(3-aminopropyl)-2-methyl-1H-pyrazol-2-ium-4-yl)pyridazin-3-yl)oxy)-1-carboxyethoxy)imino)-2-(2-aminothiazol-4-yl)acetamido)-2,2-dimethyl-4-oxoazetidin-1-yl sulfate] | 50 | 100
Cn1c(-c2ccc(OC[C@](C)(O/N=C(\C(=O)N[C@@H]3C(=O)N(OS(=O)(=O)O)C3(C)C)c3csc(N)n3)C(=O)O)cc2)cn(CCCN)c1=N [Example 107, (S)-3-((Z)-2-((((S)-1-(4-(1-(3-aminopropyl)-2-imino-3-methyl-2,3-dihydro-1H-imidazol-4-yl)phenoxy)-2-carboxypropan-2-yl)oxy)imino)-2-(2-aminothiazol-4-yl)acetamido)-2,2-dimethyl-4-oxoazetidin-1-yl sulfate] | 6.25 | 50
